Assay results from patent US20230364109A1, “GANAXOLONE FOR USE IN TREATMENT OF SUPER REFRACTORY STATUS EPILEPTICUS” (MARINUS PHARMACEUTICALS, INC., priority 2020, published 2023).

Legend:
[1] = test system: patients with super refractory SE; conditions: Phase 3, randomized, double-blind, placebo-controlled; cited from earlier work
[2] = test system: super refractory status epilepticus; conditions: for response of SRSE to treatment given before GNX: same patient, before pentobarbitol coma or during it (ACTH)

CC(=O)[C@H]1CC[C@H]2[C@@H]3CC[C@H]4C[C@H](O)CC[C@]4(C)[C@H]3CC[C@]12C [brexanolone]
efficacy over placebo in SRSE [1]: failed to show efficacy over placebo

CN1C(=O)CN=C(c2ccccc2)c2cc(Cl)ccc21 [diazepam]
response of SRSE to treatment given before GNX [2]: No response

CCC1(C)CC(=O)NC1=O (stereo not shown) [ethoxsuccimide]
response of SRSE to treatment given before GNX [2]: No response

O=C1Nc2ccc(Cl)cc2C(c2ccccc2Cl)=NC1O (stereo not shown) [lorazepam]
response of SRSE to treatment given before GNX [2]: No response

Cc1ncc2n1-c1ccc(Cl)cc1C(c1ccccc1F)=NC2 [midazolam]
response of SRSE to treatment given before GNX [2]: No response

N#Cc1ccccc1-c1cc(-c2ccccn2)cn(-c2ccccc2)c1=O [perampanel]
response of SRSE to treatment given before GNX [2]: No response

CCCC(CCC)C(=O)O [valproic acid]
serum level ([2]; female, human, in vivo): 106 µg/mL
